Assay: recombinant barcode read abundance after kanamycin selection (control-corrected) (log10(CPM+1)); higher = more efficient recombination; sequences stand for … in AGTGCAGAGAAAATCGGCCAGTTTTCTCTGCCTGCAGTCCGCATGCCGT…AGATTTATGCAGCGGACTGCCTTTCTCCCAAAGTGATAAACCGGACAGTATCATGGACCGGTTTTCCCGGTAATCCGTATTTGCAAGGTTGGTTTCACT; site = the 11-nt target
Outline: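 This pooled E. coli screen matched targets with IS621 bridge RNA target-binding loops. Plating was done in duplicate on chloramphenicol/ampicillin LB agar as a control and on chloramphenicol/ampicillin/kanamycin plus 0.1 mM IPTG. Recombination efficiency reflects barcode counts at recombinant junctions as counts per million, averaged and control-corrected. The figures are log10(CPM+1).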
In the case of “TCATATTCTTGGGTTCTAACCTGTTGCCT (site TCAGATTCTAG)”, the “recombinant barcode read abundance (log10)” value is reported as 0.069. For “TCATATTCTTGGGTTCTAACCTGTTGCCT (site TCATATTCTAG)”, the “recombinant barcode read abundance (log10)” value was 0.0782. In the case of “TCATGAACTTGGGTTCTAACCTGTTGCCT (site TCATGAACTAG)”, the “recombinant barcode read abundance (log10)” value is reported as 0.256. In the case of “TCATGAACTTGGGTTCTAACCTGTTGCCT (site TTATGATCTAG)”, the “recombinant barcode read abundance (log10)” value is reported as 0.0186. In the case of “TCATTAGCTTGGGTTCTAACCTGTTGCCG (site GGGCATCCTAT)”, the “recombinant barcode read abundance (log10)” value is reported as 0.0935. With “TCATTAGCTTGGGTTCTAACCTGTTGCCG (site TCATTAGCTCG)” the “recombinant barcode read abundance (log10)” value was 0.315. In the case of “TCATTCGCTTGGGTTCTAACCTGTTGCCT (site TCATTCGCTAG)”, the “recombinant barcode read abundance (log10)” value is reported as 0.857. For “TCATTCGCTTGGGTTCTAACCTGTTGCCT (site TCCTTAGCTAG)”, the “recombinant barcode read abundance (log10)” value was 0.186. In the case of “TCCAAACCTTGGGTTCTAACCTGTTGCGG (site TCCAAACCTCC)”, the “recombinant barcode read abundance (log10)” value is reported as 2.04. With “TCCAAACCTTGGGTTCTAACCTGTTGCGG (site TCCAACACTCC)” the “recombinant barcode read abundance (log10)” value was 0.00629. In the case of “TCCAGTCCTTGGGTTCTAACCTGTTGCTA (site TCCAGTCCTTA)”, the “recombinant barcode read abundance (log10)” value is reported as 0.688. For “TCCAGTCCTTGGGTTCTAACCTGTTGCTA (site TCCATCCCTTA)”, the “recombinant barcode read abundance (log10)” value was 0.0632. For “TCCCAAACTTGGGTTCTAACCTGTTGCAC (site CTAACTGCTAC)”, the “recombinant barcode read abundance (log10)” value was 0.0667. In the case of “TCCCAAACTTGGGTTCTAACCTGTTGCAC (site TCCCAAACTGT)”, the “recombinant barcode read abundance (log10)” value is reported as 0.657. With “TCCCACACTTGGGTTCTAACCTGTTGCCA (site ACCCACACTCG)” the “recombinant barcode read abundance (log10)” value was 0.129. In the case of “TCCCACACTTGGGTTCTAACCTGTTGCCA (site TCCCACACTTG)”, the “recombinant barcode read abundance (log10)” value is reported as 1.33. In the case of “TCCCAGCCTTGGGTTCTAACCTGTTGCTG (site TCCCAGCCTCA)”, the “recombinant barcode read abundance (log10)” value is reported as 0.0849. With “TCCCAGCCTTGGGTTCTAACCTGTTGCTG (site TCCCATCCTAA)” the “recombinant barcode read abundance (log10)” value was 0.274. With “TCCCATCCTTGGGTTCTAACCTGTTGCTT (site TCCCAGCCTCA)” the “recombinant barcode read abundance (log10)” value was 0.524. In the case of “TCCCATCCTTGGGTTCTAACCTGTTGCTT (site TCCCATCCTAA)”, the “recombinant barcode read abundance (log10)” value is reported as 0.114. In the case of “TCCCATGCTTGGGTTCTAACCTGTTGCCT (site TCCCATACTAG)”, the “recombinant barcode read abundance (log10)” value is reported as 0.19. With “TCCCATGCTTGGGTTCTAACCTGTTGCCT (site TCCCATCCTAG)” the “recombinant barcode read abundance (log10)” value was 0.151. In the case of “TCCCATGCTTGGGTTCTAACCTGTTGCCT (site TCCCATGCTAG)”, the “recombinant barcode read abundance (log10)” value is reported as 1.17. For “TCCCATGCTTGGGTTCTAACCTGTTGCCT (site TCCCATTCTAG)”, the “recombinant barcode read abundance (log10)” value was 0.0569. In the case of “TCCCCGACTTGGGTTCTAACCTGTTGCCG (site TCCCCGACTCG)”, the “recombinant barcode read abundance (log10)” value is reported as 1.03. In the case of “TCCCCGACTTGGGTTCTAACCTGTTGCCG (site TCGCCTACTCG)”, the “recombinant barcode read abundance (log10)” value is reported as 0.03. For “TCCCCGGCTTGGGTTCTAACCTGTTGCGG (site CAAAACTCTAA)”, the “recombinant barcode read abundance (log10)” value was 0.262. In the case of “TCCCCGGCTTGGGTTCTAACCTGTTGCGG (site TCCCCGGCTCC)”, the “recombinant barcode read abundance (log10)” value is reported as 1.48. In the case of “TCCCGATCTTGGGTTCTAACCTGTTGCCT (site TCCCGAACTAG)”, the “recombinant barcode read abundance (log10)” value is reported as 0.0997. For “TCCCGATCTTGGGTTCTAACCTGTTGCCT (site TCCCGACCTAG)”, the “recombinant barcode read abundance (log10)” value was 0.521. For “TCCCGATCTTGGGTTCTAACCTGTTGCCT (site TCCCGAGCTAG)”, the “recombinant barcode read abundance (log10)” value was 0.065. For “TCCCGATCTTGGGTTCTAACCTGTTGCCT (site TCCCGATCTAG)”, the “recombinant barcode read abundance (log10)” value was 0.502. With “TCCCTTCCTTGGGTTCTAACCTGTTGCCT (site TCCCGTCCTAG)” the “recombinant barcode read abundance (log10)” value was 0.0443. With “TCCCTTCCTTGGGTTCTAACCTGTTGCCT (site TCCCTTCCTAG)” the “recombinant barcode read abundance (log10)” value was 0.365. In the case of “TCCGAAGCTTGGGTTCTAACCTGTTGCCT (site GACGAAGCTAG)”, the “recombinant barcode read abundance (log10)” value is reported as 0.444. In the case of “TCCGAAGCTTGGGTTCTAACCTGTTGCCT (site TCCGAAGCTAG)”, the “recombinant barcode read abundance (log10)” value is reported as 0.487. With “TCCGACTCTTGGGTTCTAACCTGTTGCCG (site TCCGACTCTCG)” the “recombinant barcode read abundance (log10)” value was 1.55. With “TCCGACTCTTGGGTTCTAACCTGTTGCCG (site TCCTACTCTCG)” the “recombinant barcode read abundance (log10)” value was 0.122. For “TCCGAGACTTGGGTTCTAACCTGTTGCCA (site TCCGAGACTAG)”, the “recombinant barcode read abundance (log10)” value was 0.598. With “TCCGAGACTTGGGTTCTAACCTGTTGCCA (site TCCGAGACTCG)” the “recombinant barcode read abundance (log10)” value was 0.208. In the case of “TCCGAGACTTGGGTTCTAACCTGTTGCCA (site TCCGAGACTGG)”, the “recombinant barcode read abundance (log10)” value is reported as 0.176. In the case of “TCCGAGACTTGGGTTCTAACCTGTTGCCA (site TCCGAGACTTG)”, the “recombinant barcode read abundance (log10)” value is reported as 1.34. For “TCCGAGACTTGGGTTCTAACCTGTTGCCC (site TCCGAGACTAG)”, the “recombinant barcode read abundance (log10)” value was 0.146. For “TCCGAGACTTGGGTTCTAACCTGTTGCCC (site TCCGAGACTCG)”, the “recombinant barcode read abundance (log10)” value was 0.338. For “TCCGAGACTTGGGTTCTAACCTGTTGCCC (site TCCGAGACTGG)”, the “recombinant barcode read abundance (log10)” value was 1.08. In the case of “TCCGAGACTTGGGTTCTAACCTGTTGCCC (site TCCGAGACTTG)”, the “recombinant barcode read abundance (log10)” value is reported as 0.0317. For “TCCGCGACTTGGGTTCTAACCTGTTGCCT (site TCAGCGACTAG)”, the “recombinant barcode read abundance (log10)” value was 0.0444. With “TCCGCGACTTGGGTTCTAACCTGTTGCCT (site TCCGCGACTAG)” the “recombinant barcode read abundance (log10)” value was 0.159. For “TCCGCGACTTGGGTTCTAACCTGTTGCCT (site TCGGCGACTAG)”, the “recombinant barcode read abundance (log10)” value was 0.453. With “TCCGCGACTTGGGTTCTAACCTGTTGCCT (site TCTGCGACTAG)” the “recombinant barcode read abundance (log10)” value was 0.17. In the case of “TCCGCTGCTTGGGTTCTAACCTGTTGCCT (site TCCGCTACTAG)”, the “recombinant barcode read abundance (log10)” value is reported as 0.151. With “TCCGCTGCTTGGGTTCTAACCTGTTGCCT (site TCCGCTCCTAG)” the “recombinant barcode read abundance (log10)” value was 0.0574. In the case of “TCCGCTGCTTGGGTTCTAACCTGTTGCCT (site TCCGCTGCTAG)”, the “recombinant barcode read abundance (log10)” value is reported as 0.283. In the case of “TCCGCTGCTTGGGTTCTAACCTGTTGCCT (site TCCGCTTCTAG)”, the “recombinant barcode read abundance (log10)” value is reported as 0.00679. For “TCCGGTACTTGGGTTCTAACCTGTTGCAT (site TCCAGTACTAT)”, the “recombinant barcode read abundance (log10)” value was 0.369. In the case of “TCCGGTACTTGGGTTCTAACCTGTTGCAT (site TCCCGTACTAT)”, the “recombinant barcode read abundance (log10)” value is reported as 0.0823. With “TCCGGTACTTGGGTTCTAACCTGTTGCAT (site TCCGGTACTAT)” the “recombinant barcode read abundance (log10)” value was 0.849. In the case of “TCCGGTACTTGGGTTCTAACCTGTTGCAT (site TCCTGTACTAT)”, the “recombinant barcode read abundance (log10)” value is reported as 0.114. With “TCCGTCCCTTGGGTTCTAACCTGTTGCTG (site TCCGTACCTCG)” the “recombinant barcode read abundance (log10)” value was 0.0427. For “TCCGTCCCTTGGGTTCTAACCTGTTGCTG (site TCCGTCCCTCA)”, the “recombinant barcode read abundance (log10)” value was 1.57. For “TCCGTGCCTTGGGTTCTAACCTGTTGCCT (site TCCGTGACTAG)”, the “recombinant barcode read abundance (log10)” value was 0.00917. In the case of “TCCGTGCCTTGGGTTCTAACCTGTTGCCT (site TCCGTGCCTAG)”, the “recombinant barcode read abundance (log10)” value is reported as 0.598. With “TCCGTGCCTTGGGTTCTAACCTGTTGCCT (site TCCGTGGCTAG)” the “recombinant barcode read abundance (log10)” value was 0.304. For “TCCGTGCCTTGGGTTCTAACCTGTTGCCT (site TCCGTGTCTAG)”, the “recombinant barcode read abundance (log10)” value was 0.17. With “TCCGTTACTTGGGTTCTAACCTGTTGCCG (site CAGCAGCCTAA)” the “recombinant barcode read abundance (log10)” value was 0.086. With “TCCGTTACTTGGGTTCTAACCTGTTGCCG (site TCCGTTACTCG)” the “recombinant barcode read abundance (log10)” value was 0.336. In the case of “TCCTCTCCTTGGGTTCTAACCTGTTGCTT (site TCCTCTCCTAA)”, the “recombinant barcode read abundance (log10)” value is reported as 0.118. In the case of “TCCTCTCCTTGGGTTCTAACCTGTTGCTT (site TGCCCTCCTAA)”, the “recombinant barcode read abundance (log10)” value is reported as 0.0451. In the case of “TCCTGGCCTTGGGTTCTAACCTGTTGCCT (site TCCAGGGCTAG)”, the “recombinant barcode read abundance (log10)” value is reported as 0.209. For “TCCTGGCCTTGGGTTCTAACCTGTTGCCT (site TCCTGGCCTAG)”, the “recombinant barcode read abundance (log10)” value was 0.117. With “TCCTGTCCTTGGGTTCTAACCTGTTGCAT (site TCCTGTACTAG)” the “recombinant barcode read abundance (log10)” value was 0.0187. With “TCCTGTCCTTGGGTTCTAACCTGTTGCAT (site TCCTGTCCTAT)” the “recombinant barcode read abundance (log10)” value was 0.467. With “TCCTGTGCTTGGGTTCTAACCTGTTGCCT (site TCCTGTGCTAG)” the “recombinant barcode read abundance (log10)” value was 0.254. For “TCCTGTGCTTGGGTTCTAACCTGTTGCCT (site TTCTATGCTAG)”, the “recombinant barcode read abundance (log10)” value was 0.00897. In the case of “TCCTTCTCTTGGGTTCTAACCTGTTGCCT (site GAGGGGACTCT)”, the “recombinant barcode read abundance (log10)” value is reported as 0.103. In the case of “TCCTTCTCTTGGGTTCTAACCTGTTGCCT (site TCCTTCTCTAG)”, the “recombinant barcode read abundance (log10)” value is reported as 0.601. For “TCGAACCCTTGGGTTCTAACCTGTTGCCT (site TCGAAACCTAG)”, the “recombinant barcode read abundance (log10)” value was 0.36.

Source: the supplement of paper PMC11208160
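Further: IS621 recombinase and bridge RNA in Escherichia coli cells.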
